In PMC5415086 (Nature, 2010):

Tests used:
[1] = test system: other bromodomain-containing proteins from each arm of the phylogeny tree; assay: interaction with other bromodomain-containing proteins; assay type: binding; settings: selectivity
[2] = test system: panel of 38 unrelated proteins; assay: activity towards a panel of unrelated proteins; settings: selectivity
[3] = test system: bone marrow-derived macrophages (BMDMs); assay: LPS-inducible gene expression in macrophages; assay type: cell-based, C57BL/6 mice; settings: for number of LPS-inducible genes down-regulated: I-BET 1 μM, >2 fold
[4] = test system: bone marrow-derived macrophages (BMDMs); assay: gene transcription in BMDMs without LPS stimulation; assay type: cell-based, C57BL/6 mice; settings: absence of LPS stimulation
[5] = test system: bone marrow-derived macrophages (BMDMs); assay: LPS-induced signalling; assay type: cell-based, C57BL/6 mice; settings: I-BET treated cells
[6] = test system: bone marrow-derived macrophages (BMDMs); assay: viability of BMDMs; assay type: cell-based, C57BL/6 mice
pCAF = pCAF (Homo sapiens, UniProt Q92831); assay: histone acetyltransferase; assay type: biochemical
pCAF, sequence (Q92831 whole entry, species assumed): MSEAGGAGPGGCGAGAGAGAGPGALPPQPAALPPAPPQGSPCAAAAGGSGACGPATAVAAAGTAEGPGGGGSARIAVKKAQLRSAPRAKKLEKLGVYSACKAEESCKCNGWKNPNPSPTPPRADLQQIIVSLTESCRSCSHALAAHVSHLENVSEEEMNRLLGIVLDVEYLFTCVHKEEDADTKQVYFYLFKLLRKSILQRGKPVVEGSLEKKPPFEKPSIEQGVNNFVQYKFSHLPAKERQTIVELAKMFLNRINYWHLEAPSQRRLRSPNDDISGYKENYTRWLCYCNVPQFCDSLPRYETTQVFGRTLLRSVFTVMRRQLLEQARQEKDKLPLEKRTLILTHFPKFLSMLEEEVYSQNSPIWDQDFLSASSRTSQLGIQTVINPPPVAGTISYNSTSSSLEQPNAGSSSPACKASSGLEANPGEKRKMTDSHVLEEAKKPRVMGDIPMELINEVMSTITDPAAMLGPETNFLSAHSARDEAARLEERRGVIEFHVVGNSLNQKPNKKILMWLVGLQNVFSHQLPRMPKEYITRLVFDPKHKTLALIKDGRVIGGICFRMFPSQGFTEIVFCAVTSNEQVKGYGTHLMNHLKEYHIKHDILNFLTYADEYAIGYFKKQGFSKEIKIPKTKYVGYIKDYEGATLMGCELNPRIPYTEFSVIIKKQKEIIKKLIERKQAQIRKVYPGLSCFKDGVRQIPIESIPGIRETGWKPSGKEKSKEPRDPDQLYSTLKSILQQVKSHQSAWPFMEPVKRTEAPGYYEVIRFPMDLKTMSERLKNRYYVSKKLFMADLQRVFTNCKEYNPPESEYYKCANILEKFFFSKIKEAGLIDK

p300 = p300 (Homo sapiens, UniProt Q09472); assay: histone acetyltransferase; assay type: biochemical
p300, sequence (Q09472 whole entry, species assumed): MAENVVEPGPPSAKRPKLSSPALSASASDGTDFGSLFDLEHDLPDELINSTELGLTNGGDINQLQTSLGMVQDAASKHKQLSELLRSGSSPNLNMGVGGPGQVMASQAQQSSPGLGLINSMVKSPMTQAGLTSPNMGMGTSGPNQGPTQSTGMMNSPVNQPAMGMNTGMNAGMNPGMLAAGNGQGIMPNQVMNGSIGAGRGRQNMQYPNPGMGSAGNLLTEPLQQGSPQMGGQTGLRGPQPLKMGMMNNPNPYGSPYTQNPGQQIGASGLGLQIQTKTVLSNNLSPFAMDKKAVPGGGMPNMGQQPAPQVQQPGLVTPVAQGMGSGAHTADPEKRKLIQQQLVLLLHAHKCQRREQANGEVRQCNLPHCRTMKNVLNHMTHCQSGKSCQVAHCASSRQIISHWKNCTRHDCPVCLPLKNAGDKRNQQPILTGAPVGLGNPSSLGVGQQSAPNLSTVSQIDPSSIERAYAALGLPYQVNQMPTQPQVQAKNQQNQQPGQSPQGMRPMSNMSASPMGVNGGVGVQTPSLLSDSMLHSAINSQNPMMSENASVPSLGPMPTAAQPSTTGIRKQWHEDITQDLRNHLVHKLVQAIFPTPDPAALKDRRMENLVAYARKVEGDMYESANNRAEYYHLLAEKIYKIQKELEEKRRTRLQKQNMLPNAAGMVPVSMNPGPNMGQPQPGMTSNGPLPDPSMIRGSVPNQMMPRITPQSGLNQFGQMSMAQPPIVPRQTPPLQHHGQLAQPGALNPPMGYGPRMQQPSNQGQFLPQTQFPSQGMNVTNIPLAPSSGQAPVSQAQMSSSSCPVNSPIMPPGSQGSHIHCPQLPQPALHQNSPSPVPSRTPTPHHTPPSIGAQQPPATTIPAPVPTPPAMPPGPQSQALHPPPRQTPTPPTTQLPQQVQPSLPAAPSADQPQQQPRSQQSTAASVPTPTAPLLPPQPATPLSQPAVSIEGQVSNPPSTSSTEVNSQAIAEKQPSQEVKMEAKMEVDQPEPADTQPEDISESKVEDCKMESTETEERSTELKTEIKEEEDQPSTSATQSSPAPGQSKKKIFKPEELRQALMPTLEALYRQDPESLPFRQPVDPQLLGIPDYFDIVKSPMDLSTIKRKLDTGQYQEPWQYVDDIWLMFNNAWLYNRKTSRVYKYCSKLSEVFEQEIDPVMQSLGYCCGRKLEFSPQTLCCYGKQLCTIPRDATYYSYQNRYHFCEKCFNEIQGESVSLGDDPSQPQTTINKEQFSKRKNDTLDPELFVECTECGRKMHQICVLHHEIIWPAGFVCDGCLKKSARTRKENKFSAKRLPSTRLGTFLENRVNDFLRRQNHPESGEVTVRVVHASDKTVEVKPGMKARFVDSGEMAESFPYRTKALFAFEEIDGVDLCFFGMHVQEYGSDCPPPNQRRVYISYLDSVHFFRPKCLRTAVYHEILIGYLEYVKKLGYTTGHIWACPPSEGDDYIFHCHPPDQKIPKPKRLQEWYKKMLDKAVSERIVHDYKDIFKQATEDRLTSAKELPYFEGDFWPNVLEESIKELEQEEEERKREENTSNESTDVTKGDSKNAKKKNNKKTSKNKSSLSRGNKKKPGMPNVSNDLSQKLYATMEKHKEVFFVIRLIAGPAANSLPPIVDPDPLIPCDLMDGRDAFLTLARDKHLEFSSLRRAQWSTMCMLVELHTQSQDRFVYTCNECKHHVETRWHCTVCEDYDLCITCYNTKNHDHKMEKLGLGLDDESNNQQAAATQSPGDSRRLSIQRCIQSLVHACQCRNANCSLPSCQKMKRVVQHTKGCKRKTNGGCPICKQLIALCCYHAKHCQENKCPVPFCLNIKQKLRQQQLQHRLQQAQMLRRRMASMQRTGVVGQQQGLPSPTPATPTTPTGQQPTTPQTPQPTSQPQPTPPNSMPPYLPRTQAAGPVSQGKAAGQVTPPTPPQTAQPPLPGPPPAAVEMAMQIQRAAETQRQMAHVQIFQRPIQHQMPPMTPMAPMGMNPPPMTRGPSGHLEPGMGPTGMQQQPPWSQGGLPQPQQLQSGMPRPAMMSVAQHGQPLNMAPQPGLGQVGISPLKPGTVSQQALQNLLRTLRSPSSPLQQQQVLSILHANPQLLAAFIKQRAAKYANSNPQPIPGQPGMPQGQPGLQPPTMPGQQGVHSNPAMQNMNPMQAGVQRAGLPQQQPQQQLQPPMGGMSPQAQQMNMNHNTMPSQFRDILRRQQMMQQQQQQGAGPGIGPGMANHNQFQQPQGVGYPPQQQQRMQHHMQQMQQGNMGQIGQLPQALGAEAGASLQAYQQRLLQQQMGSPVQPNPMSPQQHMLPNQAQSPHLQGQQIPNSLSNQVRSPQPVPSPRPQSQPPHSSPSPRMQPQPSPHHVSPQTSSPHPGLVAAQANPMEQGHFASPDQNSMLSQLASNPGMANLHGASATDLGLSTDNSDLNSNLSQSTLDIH

GCN5 = GCN5 (Homo sapiens, UniProt Q92830); assay: histone acetyltransferase; assay type: biochemical
GCN5, sequence (Q92830 whole entry, species assumed): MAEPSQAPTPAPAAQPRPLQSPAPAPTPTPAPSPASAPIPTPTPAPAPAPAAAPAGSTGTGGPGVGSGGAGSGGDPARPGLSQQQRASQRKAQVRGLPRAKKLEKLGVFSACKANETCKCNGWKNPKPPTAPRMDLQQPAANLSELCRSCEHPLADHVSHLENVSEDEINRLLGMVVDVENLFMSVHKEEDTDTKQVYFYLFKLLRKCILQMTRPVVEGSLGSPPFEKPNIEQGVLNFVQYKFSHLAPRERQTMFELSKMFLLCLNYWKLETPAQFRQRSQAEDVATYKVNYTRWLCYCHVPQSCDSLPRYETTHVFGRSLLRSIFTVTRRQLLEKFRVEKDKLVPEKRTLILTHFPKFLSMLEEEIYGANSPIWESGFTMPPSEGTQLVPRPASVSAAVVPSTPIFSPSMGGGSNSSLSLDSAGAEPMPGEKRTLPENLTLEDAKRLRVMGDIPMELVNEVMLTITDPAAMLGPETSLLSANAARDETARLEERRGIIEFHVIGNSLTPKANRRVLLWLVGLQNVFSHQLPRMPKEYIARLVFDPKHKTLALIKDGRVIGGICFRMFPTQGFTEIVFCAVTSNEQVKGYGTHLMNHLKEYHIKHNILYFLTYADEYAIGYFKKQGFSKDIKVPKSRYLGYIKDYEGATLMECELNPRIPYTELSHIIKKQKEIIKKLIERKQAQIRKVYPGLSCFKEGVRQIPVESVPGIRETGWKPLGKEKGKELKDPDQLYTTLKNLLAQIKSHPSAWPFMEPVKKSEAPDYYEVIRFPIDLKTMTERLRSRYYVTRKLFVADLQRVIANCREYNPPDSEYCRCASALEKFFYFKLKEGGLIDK

CBP = CBP (Homo sapiens, UniProt Q92793); assay: histone acetyltransferase; assay type: biochemical
[7] = test system: il6 promoter in bone marrow-derived macrophages; assay: ChIP of epigenetic marks at gene promoters in LPS-stimulated macrophages; assay type: cell-based, C57BL/6 mice; settings: I-BET 5 μM
[8] = test system: bone marrow-derived macrophages (BMDMs); assay type: cell-based, C57BL/6 mice; settings: BMDM treatment with the HDAC inhibitor

SMILES | interaction with other bromodomain-containing proteins [1] | activity towards a panel of 38 unrelated proteins [2] | number of LPS-inducible genes down-regulated ([3]; 1 hour after LPS) | number of LPS-inducible genes down-regulated ([3]; 4 hours after LPS) | expression of tnf, ccl2-5, cxcl1/2 ([3]; LPS-stimulated BMDMs) | effect on gene transcription [4] | LPS-induced ERK phosphorylation and IκBα degradation [5] | effect on viability of BMDMs [6] | suppression of HAT activity (pCAF) | suppression of HAT activity (p300) | suppression of HAT activity (GCN5) | suppression of HAT activity (CBP) | BET recruitment at il6 promoter [7] | conversion of sI-BET genes into naI-BET genes [8]
CCNC(=O)C[C@@H]1N=C(c2ccc(Cl)cc2)c2cc(OC)ccc2-n2c(C)nnc21 [I-BET] | did not interact | no activity | 38 | 151 | not affected | marginal effect | unaltered pattern | no effect | inability of I-BET to suppress the activity | inability of I-BET to suppress the activity | inability of I-BET to suppress the activity | inability of I-BET to suppress the activity | marked reduction | 
CC(/C=C/C(=O)NO)=C\[C@@H](C)C(=O)c1ccc(N(C)C)cc1 [trichostatin A] |  |  |  |  |  |  |  |  |  |  |  |  |  | able to “convert” sI-BET into naI-BET genes
